Results: ChEMBL document CHEMBL1144604, “Synthesis and biological evaluation of phosphonate derivatives as autotaxin (ATX) inhibitors” (Bioorg Med Chem Lett, 2007)

Legend:
Autotaxin (Homo sapiens) [1] = target: Autotaxin (Homo sapiens) (UniProt Q13822); test: Inhibition of human recombinant ATX at 100 uM after 16 hrs; values are per cent of control
Autotaxin (Homo sapiens) [2] = target: Autotaxin (Homo sapiens) (UniProt Q13822); test: Inhibition of human recombinant ATX at 1 uM after 16 hrs; values are per cent of control
Autotaxin (Homo sapiens) [3] = target: Autotaxin (Homo sapiens) (UniProt Q13822); test: Inhibition of human recombinant ATX at 10 uM after 16 hrs; values are per cent of control

| Structure (SMILES) | residual activity (Autotaxin (Homo sapiens) [1]) [%] | residual activity (Autotaxin (Homo sapiens) [2]) [%] | residual activity (Autotaxin (Homo sapiens) [3]) [%] |
| --- | --- | --- | --- |
| CCCCCCCCCCCCCCCC(=O)N[C@@H](Cc1ccc(OCc2cc(OCC(F)(F)F)ccn2)cc1)C(O)CP(=O)(O)O (single isomer, unassigned; diastereomer b) | 56 | 103 | 83 |
| CCCCCCCCCCCCCCCC(=O)N[C@@H](Cc1ccc(OCc2cc(OCC(F)(F)F)ccn2)cc1)C(O)CP(=O)(O)O (stereo in doubt; f3) | 32 | 92 | 80 |
| CCCCCCCCCCCCCCCC(=O)N[C@@H](Cc1ccc(OCc2ncc(C)c(OC)c2C)cc1)C(O)CP(=O)(O)O (stereo in doubt; f17) | 6 | 27 | 13 |
| CCCCCCCCCCCCCCCCCC(=O)N[C@@H](Cc1ccc(OCc2ncc(C)c(OC)c2C)cc1)C(O)CP(=O)(O)O (stereo in doubt; f39) | 81 | 101 | 91 |
| CCCCCCCC/C=C/CCCCCCCC(=O)N[C@@H](Cc1ccc(OCc2ncc(C)c(OC)c2C)cc1)C(O)CP(=O)(O)O (stereo in doubt; f42) | 58 | 77 | 68 |

Now from value to compound:

| residual activity (Autotaxin (Homo sapiens) [1]) [%] | residual activity (Autotaxin (Homo sapiens) [2]) [%] | residual activity (Autotaxin (Homo sapiens) [3]) [%] | Structure (SMILES) |
| --- | --- | --- | --- |
| 72 | 80 | 79 | CCCCCCCCCCCCCCCC(=O)N[C@H](Cc1ccc(OCCC)cc1)C(O)CP(=O)(O)O (stereo in doubt) |
| 60 | 103 | 76 | CCCCCCCCCCCCCCCC(=O)N[C@H](Cc1ccc(OCc2ccccn2)cc1)C(O)CP(=O)(O)O (stereo in doubt; f9) |
| 8 | 63 | 21 | CCCCCCCCCCCCCCCC(=O)N[C@@H](Cc1ccc(OCc2ncc(C)c(OC)c2C)cc1)C(O)CP(=O)(O)O (stereo in doubt; f18) |
| 82 | 95 | 84 | CCCCCCCCCCCCCCCC(=O)N[C@H](Cc1ccc(OC)cc1)C(O)CP(=O)(O)O (stereo in doubt; f20) |
| 69 | 84 | 80 | CCCCCCCCCCCCCCCC(=O)N[C@@H](Cc1ccc(OC)cc1)C(O)CP(=O)(O)O (stereo in doubt; f22) |
| 82 | 104 | 104 | CCCCCCCCCCCCCCCC(=O)N[C@@H](Cc1ccc(OCCC(C)C)cc1)C(O)CP(=O)(O)O (stereo in doubt; f33) |
| 91 | 106 | 101 | CCCCCCCCCCCCCCCC(=O)N[C@@H](Cc1ccc(OCCC(C)C)cc1)C(O)CP(=O)(O)O (stereo in doubt; f34) |
